Where “and” joins values, the source holds several entries; their conditions need not be identical. Identical values can stand only once.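 Test compounds were applied to cells in 96-well plates for 48 hours at 5 doses. Abbreviation: GI50, concentration required for 50% inhibition of growth.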 Calls of active or inactive are those of the source. Cut-off read from the data, not from the text of the source: active = GI50 up to about 1.1 µM and inactive = higher.
Key:
Assay in all cases: inhibition of tumour cell growth, NCI panel, 48 h
CAKI-1 = test system: CAKI-1
CCRF-CEM = test system: CCRF-CEM
EKVX = test system: EKVX
HL-60 = test system: HL-60
KM12 = test system: KM12
LOX IMVI = test system: LOX IMVI
NCI-H522 = test system: NCI-H522
OVCAR-4 = test system: OVCAR-4
RXF 393 = test system: RXF 393
SNB-75 = test system: SNB-75
SR = test system: SR
SW-620 = test system: SW-620
TK-10 = test system: TK-10
UACC-62 = test system: UACC-62
UO-31 = test system: UO-31
HCT-15 = test system: HCT-15

SMILES | GI50 (CAKI-1) | GI50 (CCRF-CEM) | GI50 (EKVX) | GI50 (HL-60) | GI50 (KM12) | GI50 (LOX IMVI) | GI50 (NCI-H522) | GI50 (OVCAR-4) | GI50 (RXF 393) | GI50 (SNB-75) | GI50 (SR) | GI50 (SW-620) | GI50 (TK-10) | GI50 (UACC-62) | GI50 (UO-31) | GI50 (HCT-15) [µM]
CCOc1ccc(/N=N/c2c(-c3ccccc3)nn(C(=O)CC(=O)Nc3ccccc3Cl)c2-c2ccccc2)cc1 | 23.4 µM (inactive) | 25.4 µM (inactive) | 44 µM (inactive) | 25.6 µM (inactive) | 46.1 µM (inactive) | 42.2 µM (inactive) | 78 µM (inactive) | 47.4 µM (inactive) | 34.2 µM (inactive) | 21.2 µM (inactive) | 72.8 µM (inactive) | > 100 µM (inactive) | 74.6 µM (inactive) | 77.1 µM (inactive) | 28.9 µM (inactive) | –
Clc1cccc(C2SCc3nc4ccccc4n32)c1Cl (stereo not given) | 16.3 µM (inactive) | 19.1 µM (inactive) | 16.2 µM (inactive) | 5.18 µM (inactive) | – | – | 16.6 µM (inactive) | 13.9 µM (inactive) | 15.6 µM (inactive) | 4.51 µM (inactive) | – | 17.1 µM (inactive) | 15.6 µM (inactive) | 19.7 µM (inactive) | 13 µM (inactive) | 17.4
COc1c(-c2ccccc2)nc2ccc(Oc3ccccc3)nn12 | > 68.4 µM (inactive) | 8.65 µM (inactive) | > 100 µM (inactive) | 7.33 µM (inactive) | > 54.2 µM (inactive) | > 72.9 µM (inactive) | > 100 µM (inactive) | > 36.3 µM (inactive) | > 38.8 µM (inactive) | > 57.5 µM (inactive) | 13.8 µM (inactive) | > 75.7 µM (inactive) | > 100 µM (inactive) | > 69.7 µM (inactive) | > 61.8 µM (inactive) | 17.7
CC(C)(C)CC(C)(C)c1cc2c(O)c(c1)Cc1cc(C(C)(C)CC(C)(C)C)cc(c1O)Cc1cc(C(C)(C)CC(C)(C)C)cc(c1O)Cc1cc(C(C)(C)CC(C)(C)C)cc(c1O)C2 | – | > 100 µM (inactive) | > 100 µM (inactive) | > 100 µM (inactive) | > 100 µM (inactive) | – | > 100 µM (inactive) | > 100 µM (inactive) | > 100 µM (inactive) | > 100 µM (inactive) | – | > 100 µM (inactive) | > 100 µM (inactive) | > 100 µM (inactive) | > 100 µM (inactive) | > 100
CCn1c2ccccc2c2ccc3c(c21)C(=O)c1ccccc1C3=O | – | 74.3 µM (inactive) | 44.8 µM (inactive) | 36.8 µM (inactive) | – | – | > 100 µM (inactive) | > 100 µM (inactive) | 84.1 µM (inactive) | > 100 µM (inactive) | 10.4 µM (inactive) | > 100 µM (inactive) | – | > 100 µM (inactive) | > 100 µM (inactive) | > 100
Nc1nc2c3nc(Nc4ccccc4)sc3nc(=O)n2c2sc(Nc3ccccc3)nc12 | – | > 100 µM (inactive) | > 100 µM (inactive) | > 100 µM (inactive) | – | – | > 100 µM (inactive) | > 100 µM (inactive) | > 100 µM (inactive) | > 100 µM (inactive) | > 100 µM (inactive) | > 100 µM (inactive) | – | > 100 µM (inactive) | > 100 µM (inactive) | > 100
N=C1N(c2ccccc2)C(=O)C23CCCC2C13N1CCOCC1 (stereo not given) | > 100 µM (inactive) | > 100 µM (inactive) | > 100 µM (inactive) | > 100 µM (inactive) | > 100 µM (inactive) | – | > 100 µM (inactive) | > 100 µM (inactive) | > 100 µM (inactive) | > 100 µM (inactive) | > 100 µM (inactive) | > 100 µM (inactive) | – | > 100 µM (inactive) | > 100 µM (inactive) | > 100
CC(=O)OC1C/C(C)=C/CCC(C)/C=C/C2(C)CCC(C(C)(C)O)C12 (stereo not given) | 59 µM (inactive) | 28.6 µM (inactive) | 63.2 µM (inactive) | 24.2 µM (inactive) | 51.2 µM (inactive) | 39.1 µM (inactive) | – | 49.8 µM (inactive) | 14 µM (inactive) | 40.7 µM (inactive) | 18.6 µM (inactive) | 47.5 µM (inactive) | > 100 µM (inactive) | 80.4 µM (inactive) | 37.3 µM (inactive) | 43.9
NNC(=S)N/N=C(\CC1OC(=O)c2ccccc21)c1ccccc1O (stereo not given) | 71.8 µM (inactive) | 25.9 µM (inactive) | 78.7 µM (inactive) | 24.4 µM (inactive) | 40.4 µM (inactive) | 17.6 µM (inactive) | 22.8 µM (inactive) | 88.7 µM (inactive) | 36.4 µM (inactive) | 42.6 µM (inactive) | 16.3 µM (inactive) | 55.7 µM (inactive) | > 100 µM (inactive) | 35.5 µM (inactive) | 37.7 µM (inactive) | 55.8
C1CCN(c2nc(=[N+]3CCCCC3)ss2)CC1 | > 100 µM (inactive) | 43.7 µM (inactive) | > 100 µM (inactive) | > 100 µM (inactive) | 9.18 µM (inactive) | 41.1 µM (inactive) | > 100 µM (inactive) | > 100 µM (inactive) | > 100 µM (inactive) | > 100 µM (inactive) | > 100 µM (inactive) | > 100 µM (inactive) | > 100 µM (inactive) | > 100 µM (inactive) | > 100 µM (inactive) | > 100
C/C=C/COC(=O)CO[N+](=O)[O-] | > 100 µM (inactive) | > 100 µM (inactive) | > 100 µM (inactive) | > 100 µM (inactive) | > 100 µM (inactive) | > 100 µM (inactive) | > 100 µM (inactive) | > 100 µM (inactive) | > 100 µM (inactive) | > 100 µM (inactive) | > 100 µM (inactive) | > 100 µM (inactive) | > 100 µM (inactive) | > 10 µM (inactive) | > 100 µM (inactive) | > 100
CC1(C)C(=O)CCC(=O)C(C)(C)C2=CC=C(O2)C(C)(C)C(=O)CCC(=O)C(C)(C)C2=CC=C1O2 | > 100 µM (inactive) | > 100 µM (inactive) | > 100 µM (inactive) | > 100 µM (inactive) | > 100 µM (inactive) | > 100 µM (inactive) | > 100 µM (inactive) | > 100 µM (inactive) | > 100 µM (inactive) | – | > 100 µM (inactive) | > 100 µM (inactive) | > 100 µM (inactive) | – | – | > 100
Cc1ccc(/C=C/C(=O)c2ccc(Cl)c(Cl)c2)cc1 | > 100 µM (inactive) | > 100 µM (inactive) | > 100 µM (inactive) | > 100 µM (inactive) | > 100 µM (inactive) | > 100 µM (inactive) | > 100 µM (inactive) | > 100 µM (inactive) | 84.1 µM (inactive) | > 100 µM (inactive) | > 100 µM (inactive) | > 100 µM (inactive) | > 100 µM (inactive) | > 100 µM (inactive) | > 100 µM (inactive) | –
O=C1C(=O)N(C(=O)c2ccc(Cl)c(Cl)c2)c2ccccc21 | – | > 100 µM (inactive) | > 100 µM (inactive) | > 100 µM (inactive) | > 100 µM (inactive) | > 100 µM (inactive) | – | > 100 µM (inactive) | > 100 µM (inactive) | 58.6 µM (inactive) | > 100 µM (inactive) | > 100 µM (inactive) | > 100 µM (inactive) | > 100 µM (inactive) | > 100 µM (inactive) | –
Clc1ccc(C2N3CCCCC3[C@@H]3c4[nH]c5ccccc5c4CCN23)cc1 (stereo not given in full) | > 100 µM (inactive) | 24.9 µM (inactive) | 81.7 µM (inactive) | 24.9 µM (inactive) | – | – | – | 56.1 µM (inactive) | 35.2 µM (inactive) | 80.5 µM (inactive) | – | 44.9 µM (inactive) | > 100 µM (inactive) | 50.6 µM (inactive) | 49.7 µM (inactive) | 53
Cc1ccccc1NC(=O)CC1C(=O)Nc2ccccc2[S+]1[O-] (stereo not given) | > 100 µM (inactive) | > 100 µM (inactive) | > 100 µM (inactive) | > 100 µM (inactive) | – | > 100 µM (inactive) | > 100 µM (inactive) | 71.6 µM (inactive) | 26.6 µM (inactive) | 25.6 µM (inactive) | > 100 µM (inactive) | > 100 µM (inactive) | > 100 µM (inactive) | > 100 µM (inactive) | > 100 µM (inactive) | > 100
COC(=O)[C@@H]1[C@H](O)[C@H](C)[C@H](O)[C@@](C)(O)/C=C\C=C(\C)C(=O)Nc2c(C)c(OC(C)=O)c3c(c2O)C(=O)C(C)=C2OCOC(=C23)/C(C)=C/[C@@](C)(O)[C@H](O)[C@@H](C)[C@H]1OC(C)=O | 93.8 µM (inactive) | 15.8 µM (inactive) | 78.2 µM (inactive) | 20.5 µM (inactive) | 47.8 µM (inactive) | 26.8 µM (inactive) | 47.2 µM (inactive) and 21.5 µM (inactive) | 55.6 µM (inactive) | 62.7 µM (inactive) | > 66.8 µM (inactive) | – | 9.91 µM (inactive) and 59 µM (inactive) | > 66.8 µM (inactive) | 41.3 µM (inactive) | 25.9 µM (inactive) | 26.9
COc1cc(/C=C/c2cccnc2)cc(OC)c1OC | > 100 µM (inactive) | > 100 µM (inactive) | 66.1 µM (inactive) | 98.2 µM (inactive) | > 100 µM (inactive) | > 100 µM (inactive) | 53.5 µM (inactive) | > 100 µM (inactive) | > 100 µM (inactive) | 45.7 µM (inactive) | – | > 100 µM (inactive) | 58.6 µM (inactive) | 81.1 µM (inactive) | 36.5 µM (inactive) | > 100
CN(C)CCNc1nc(-c2cccs2)cc(-c2cccs2)n1 | > 10 µM (inactive) | 4.41 µM (inactive) | – | – | 12.1 µM (inactive) | 10.5 µM (inactive) | > 10 µM (inactive) | > 10 µM (inactive) | 14.6 µM (inactive) | 23.8 µM (inactive) | 2.84 µM (inactive) | 13.9 µM (inactive) | 14.9 µM (inactive) | 19.1 µM (inactive) | 11.2 µM (inactive) | 15.9

From ChEMBL document CHEMBL1201862, “PubChem BioAssay data set” (2004)
